# Results from patent US20230301972A1, “ANTI-FIBROTIC COMPOSITION AND RELATED METHODS” (Fred Hutchinson Cancer Center, priority 2020, published 2023).
# Experiments:
# Assay type in all cases: cell-based, human
# LX2 cells [1] = assay: Live cell wound healing assay in LX2 cells; conditions: 1 μM; TGFb 6.5 ng/ml; wound closure density at 50 hour
# Method: (§1) LX2 cells were obtained from Sigma Aldrich (Cat #SCC064). LX2 cells were grown at 37° C. under 5% CO2, 95% ambient atmosphere and maintained in Dulbecco's […] (DMEM) supplemented with 10% FBS (Sigma) and 1% Penn Strep.
# FIG. 10A: LX2 cells were plated on 96-well plates (Essen Image Lock, Essen Instruments). […] Wound closure was monitored with Incucyte Live-Cell Imaging System and software (Essen Instruments) every 2-4 hours for 72 hours. The mean relative wound density of at least three biological replicates was calculated. The wound density correlates with the cell motility. Plotted is the wound closure density at 50 hour.
# LX2 cells [2] = assay: qPCR of TGF-β-induced gene expression in LX2 cells; conditions: galunisertib
# Method: as §1
# (§2) FIGS. 10B and 10C: LX2 cells were incubated with TGF-β alone at 6.5 ng/ml or TGF-β with indicated drugs for 48 hours. Total cellular RNA was isolated using a RNeasy Mini Kit (QIAGEN). 1 μg of total RNA was reverse transcribed into first-strand cDNA using an RT2 First Strand Kit (QIAGEN). The resultant cDNA was subjected to qPCR using indicated human primers to measure the changes in mRNA expression of indicated human genes.
# [3] = system: IPF-LL29 and IPF-LL97A cells; assay: qPCR of TGF-β-induced gene expression in IPF-LL29 and IPF-LL97A cells; conditions: nintedanib at a same equivalent dose, pirfenidone at a much higher dose; FIGS. 2A, 2B, 3A, 3B
# Method: IPF-LL29, IPF-LL97A, and human lung fibroblast LL47 cell lines were purchased from ATCC. Mouse lung fibroblasts were isolated from the lungs of male C57BL/6J mice. Cells were grown at 37° C. under 5% CO2, 95% ambient atmosphere and maintained in Dulbecco's […] (DMEM) supplemented with 10% FBS (Sigma) and 1% Penn Strep.
# as §2, with “2A” for “10B”, “2B. IPF-29 (FIG. 2A) or IPF-97A (FIG. 2B)” for “10C: LX2”, “5” for “6.5”, “hours and 5 days.” for “hours.”
SMILES,TGF-β-induced motility of LX2 cells (LX2 cells [1]),effect on TGF-β-induced expression of COL1A1 and αSMA (LX2 cells [2]),TGF-β induced expression of myofibroblast activation marker genes or proliferation stimuli [3]
"Cc1cccc(-c2nn3c(c2-c2ccnc4ccc(C(N)=O)cc24)CCC3)n1 [galunisertib, reference compound]",did not affect LX2 cell motility,modest effect,–
"COC(=O)c1ccc2c(c1)NC(=O)/C2=C(\Nc1ccc(N(C)C(=O)CN2CCN(C)CC2)cc1)c1ccccc1 [nintedanib, reference compound]",–,–,did not effectively block
"Cc1ccc(=O)n(-c2ccccc2)c1 [pirfenidone, reference compound]",–,–,did not effectively block
